Measurements taken from patent publication US20090325948A1, “INHIBITORS OF UNDECAPRENYL PYROPHOSPHATE SYNTHASE” (priority 2006, published 2009).

target: T1, Streptococcus pneumonia UPPS (Streptococcus pneumoniae serotype 4, UniProt Q97SR4); assay: UPPS binding/inhibition assay (inorganic phosphate quantified with Biomol Green); format: biochemical; settings: 20 min preincubation; FPP 3 μM, IPP 16 μM
T1 construct: His-tag (N); made in house; this is inferred
T1 sequence (Q97SR4 1-252): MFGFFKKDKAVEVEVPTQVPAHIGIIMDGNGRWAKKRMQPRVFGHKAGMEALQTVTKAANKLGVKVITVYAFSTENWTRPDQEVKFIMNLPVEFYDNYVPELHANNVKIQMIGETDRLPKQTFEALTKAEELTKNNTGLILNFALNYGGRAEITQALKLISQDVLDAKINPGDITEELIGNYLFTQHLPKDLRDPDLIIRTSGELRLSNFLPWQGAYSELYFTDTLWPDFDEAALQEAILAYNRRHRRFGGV
Procedure: The ability of several of the compounds described herein to bind to UPPS was also tested as follows.
Streptococcus pneumonia UPPS was cloned into pET-15b, expressed and purified as an N-terminal His-tag fusion using affinity chromatography. The working stock of UPPS was prepared by mixing the purified enzyme with liposome made from E. coli total lipids extract (Avanti Polar Lipis, Inc., Alabaster, Ala.). The substrates FPP and IPP and inorganic pyrophosphatase were purchased from Sigma. Biomol Green reagent was from Biomol International (Plymouth Meeting, Pa.). All other chemicals were from Sigma at the highest grade.
For testing a compound, UPPS was first incubated with the compound at desired concentrations for 20 minutes in the UPPS reaction buffer that contained 100 mM Tris-HCl, pH 7.3, 50 mM KCl, 1 mM MgCl2, 0.01% Triton X-100, and 20 μg/mL BSA. The reaction was then initiated by the addition of a mixture of FPP, IPP, and E. Coli inorganic phosphatase made in the same UPPS reaction buffer. The final concentrations for FPP and IPP were 3 μM and 16 μM, respectively. The inorganic phosphate generated in the reactions was then quantified with Biomol Green reagent, which was then used to determine the rate of the reaction and the inhibitory activity of the compound.
For example, the results of the binding assay for several compounds are shown the table below: […]

SMILES	IC50 [µM]
O=C(Nc1ccc(C2CCCCC2)cc1)c1c(O)c2cscc2[nH]c1=O [compound 4]	0.01 to 10
COc1ccc(-c2nc(NC(=O)c3c(O)c4cscc4[nH]c3=O)nn2-c2ccc(OC)cc2)cc1 [compound 10]	0.01 to 10
CC(C)(C)C1CCC(NC(=O)c2c(O)c3cscc3[nH]c2=O)CC1 (stereo not shown) [compound 11]	0.01 to 10
CC(C)(C)OC(=O)N1CCC2NC(=O)C(C(=O)Nc3ccc(N4CCN(CCO)CC4)cc3)=C(O)C2C1 (stereo not shown) [compound 59]	0.01 to 10
O=C(NCc1ccccc1)c1c(O)c2c([nH]c1=O)CCCC2 [compound 84]	0.01 to 10
CC(C)CCNC(=O)c1c(O)c2c([nH]c1=O)CCCC2 [compound 87]	0.01 to 10
O=C(NC1CCCCCC1)c1c(O)c2c([nH]c1=O)CCCC2 [compound 92]	0.01 to 10
O=C(Nc1cccc(Br)c1)c1c(O)c2c([nH]c1=O)CCCC2 [compound 93]	> 50
CNC(=O)c1ccccc1NC(=O)c1c(O)c2c([nH]c1=O)CCCC2 [compound 98]	0.01 to 10
O=C(Nc1cccc(Cl)c1Cl)c1c(O)c2c([nH]c1=O)CCCC2 [compound 100]	> 50
O=C(Nc1nc2ccc(Br)cc2s1)c1c(O)c2c([nH]c1=O)CCCC2 [compound 104]	0.01 to 10
O=C(Nc1ccc(N2CCCCC2)cc1)c1c(O)c2c([nH]c1=O)CNCC2 [compound 120]	0.01 to 10
O=C(Nc1ccc(N2CCCCC2)cc1)c1c(O)c2c([nH]c1=O)CCNC2 [compound 121]	0.01 to 10
CCCOC(=O)c1ccc(NC(=O)c2c(O)c3c([nH]c2=O)CCCC3)cc1 [compound 124]	0.01 to 10
CC(=O)N1CCc2[nH]c(=O)c(C(=O)Nc3ccc(N4CCCCC4)cc3)c(O)c2C1 [compound 126]	0.01 to 10
CC(C)(C)C(=O)N1CCc2[nH]c(=O)c(C(=O)Nc3ccc(N4CCCCC4)cc3)c(O)c2C1 [compound 128]	0.01 to 10
COC(=O)N1CCc2[nH]c(=O)c(C(=O)Nc3ccc(N4CCCCC4)cc3)c(O)c2C1 [compound 129]	0.01 to 10
O=C(NNC(=O)c1c(O)c2ccccc2[nH]c1=O)c1ccccc1Cl [compound 131]	0.01 to 10
O=C(NC1CCCCC1)c1c(O)c2ccccc2[nH]c1=O [compound 137]	0.01 to 10
COc1cccc2[nH]c(=O)c(C(=O)Nc3ccc(Oc4ccccc4)cc3)c(O)c12 [compound 144]	> 50
O=C(NCCN1CCOCC1)c1c(O)c2ccccc2[nH]c1=O [compound 154]	0.01 to 10
O=C(Nc1ccc(C(F)(F)F)nc1)c1c(O)c2ccccc2[nH]c1=O [compound 157]	0.01 to 10
O=C(Nc1ccccc1Oc1ccccc1)c1c(O)c2ccccc2[nH]c1=O [compound 162]	0.01 to 10
Cn1c(=O)c(C(=O)Nc2ccc(Oc3ccccc3)cc2)c(O)c2ccccc21 [compound 168]	0.01 to 10
COc1ccc(-c2nc(NC(=O)c3c(O)c4ccccc4n(C)c3=O)nn2-c2ccc(OC)cc2)cc1 [compound 173]	0.01 to 10
Cn1c(=O)c(C(=O)Nc2ccc(OC(F)(F)F)cc2)c(O)c2ccccc21 [compound 175]	0.01 to 10
CCCN(CC)c1ccc(NC(=O)c2c(O)c3ccc(N4CCNCC4)cc3[nH]c2=O)cc1 [compound 178]	0.01 to 10
O=C(Nc1ccc(N2CCCCC2)cc1)c1c(O)c2cc(N3CCNCC3)ccc2[nH]c1=O [compound 179]	0.01 to 10
CCCN(CC)c1ccc(NC(=O)c2c(O)c3ccc(N4CCN(C)CC4)cc3[nH]c2=O)cc1 [compound 180]	0.01 to 10

Results, then the compound that gave them:

IC50 [µM]	SMILES
0.01 to 10	O=C(Nc1ccc(Oc2ccccc2)cc1)c1c(O)c2cscc2[nH]c1=O [compound 2]
0.01 to 10	O=C(Nc1ccc(-c2ccccc2)cc1)C1=C(O)[C@H]2CNC[C@@H]2NC1=O [compound 17]
0.01 to 10	CCN1C[C@@H]2NC(=O)C(C(=O)Nc3ccc(C4CCCCC4)cc3)=C(O)[C@H]2C1 [compound 20]
0.01 to 10	O=C(Nc1ccc(-c2ccccc2)cc1)C1=C(O)C2CNCCC2NC1=O (stereo not shown) [compound 26]
0.01 to 10	O=C(Nc1ccc(Oc2ccccc2)cc1)C1=C(O)C2CNCCC2NC1=O (stereo not shown) [compound 28]
0.01 to 10	CC(C)(C)OC(=O)N1CCC2NC(=O)C(C(=O)Nc3ccc(C4CCCCC4)cc3)=C(O)C2C1 (stereo not shown) [compound 29]
0.01 to 10	O=C(Nc1ccc(N2CCCCC2)cc1)C1=C(O)C2CCNCC2NC1=O (stereo not shown) [compound 32]
0.01 to 10	CC(C)(C)OC(=O)N1CCC2NC(=O)C(C(=O)Nc3ccc(Oc4ccccc4)cc3)=C(O)C2C1 (stereo not shown) [compound 34]
0.01 to 10	O=C(Nc1ccc(N2CCCCC2)cc1)C1=C(O)C2CNCCC2NC1=O (stereo not shown) [compound 37]
0.01 to 10	O=C(Nc1ccc(C(F)(F)F)cc1)C1=C(O)[C@H]2CCC[C@H]2NC1=O [compound 40]
0.01 to 10	O=C(Nc1ccc(C2CCCCC2)cc1)C1=C(O)[C@H]2CCC[C@H]2NC1=O [compound 45]
0.01 to 10	O=C(Nc1ccc(N2CCCCC2)cc1)C1=C(O)[C@H]2CNCC[C@@H]2NC1=O [compound 46]
0.01 to 10	O=C(Nc1ccc(N2CCCCC2)cc1)C1=C(O)[C@H]2CNCC[C@H]2NC1=O [compound 47]
0.01 to 10	O=C(Nc1ccc(N2CCCCC2)cc1)C1=C(O)C2CCNCC2NC1=O (stereo not shown) [compound 49]
0.01 to 10	O=C(Nc1ccc(C2CCCCC2)cc1)C1=C(O)[C@H]2CNCC[C@@H]2NC1=O [compound 51]
0.01 to 10	CC(C)(C)OC(=O)N1CCC2C(O)=C(C(=O)Nc3ccc(N4CCCC4)cc3)C(=O)NC2C1 (stereo not shown) [compound 54]
0.01 to 10	O=C(Nc1ccc(N2CCCC2)cc1)C1=C(O)C2CCNCC2NC1=O (stereo not shown) [compound 61]
> 50	O=C(Nc1ccc(N2CCN(CCO)CC2)cc1)C1=C(O)C2CNCCC2NC1=O (stereo not shown) [compound 64]
0.01 to 10	CCN1CC[C@@H]2NC(=O)C(C(=O)Nc3ccc(N4CCCCC4)cc3)=C(O)[C@H]2C1 [compound 69]
0.01 to 10	COCCOC(=O)N1CC[C@@H]2NC(=O)C(C(=O)Nc3ccc(N4CCCCC4)cc3)=C(O)[C@H]2C1 [compound 72]
> 50	C#CCOC(=O)N1CC[C@@H]2NC(=O)C(C(=O)Nc3ccc(N4CCCCC4)cc3)=C(O)[C@H]2C1 [compound 73]
0.01 to 10	O=C(Nc1ccc(C2CCCCC2)cc1)c1c(O)c2cc(-c3ccccc3)sc2[nH]c1=O [compound 107]
0.01 to 10	CCCCCCOc1ccc(NC(=O)c2c(O)c3cc(-c4ccccc4)sc3[nH]c2=O)cc1 [compound 110]
10 to 50	O=C(Nc1ccc(C(F)(F)F)cc1)c1c(O)c2cc(-c3ccccc3)sc2[nH]c1=O [compound 111]
0.01 to 10	O=C(Nc1ccc(Oc2ccccc2)cc1)c1c(O)c2ccccc2[nH]c1=O [compound 142]
0.01 to 10	O=C(Nc1ccc(-c2ccccc2)cc1)c1c(O)c2cc(Br)ccc2[nH]c1=O [compound 159]
